Laboratory results taken from publication PMC6152180, “Design, Synthesis and Evaluation of Hesperetin Derivatives as Potential Multifunctional Anti-Alzheimer Agents” (Molecules : A Journal of Synthetic Chemistry and Natural …, 2017).
Like-named read-outs stand apart in the source and are kept apart here.

Tests used:
[1] = biological target: T1, AChE (Electrophorus electricus, UniProt O42275); assay: biochemical; settings: for Selective Index: Selectivity Index = IC50 (BuChE)/IC50 (AChE)
T1 construct: purchased Sigma-Aldrich C3389-2KU
Experimental: (§1) Acetylcholinesterase (AChE, E.C. 3.1.1.7, obtained from electric eel) was purchased from Sigma-Aldrich (St. Louis, MO, USA, product code: C3389-2KU). Butyrylcholinesterase (BuChE, E.C. 3.1.1.8, obtained from equine serum) was purchased from Aladdin (Shanghai, China, product code: B128570-2KU). […] The compounds were dissolved in a minimum volume of DMSO (1%) and then diluted in 0.1 M KH2PO4/K2HPO4 buffer (pH 8.0) to provide a final concentration range.
(§2) Enzyme solutions were prepared to give 2.0 units/ mL in 2 mL aliquots. The assay medium contained phosphate buffer, pH 8.0 (1 mL), 50 μL of 0.01 M DTNB, 10 μL of enzyme, and 50 μL of 0.01 M substrate (ATC). The substrate was added to the assay medium containing enzyme, buffer, and DTNB with inhibitor after 15 min of incubation time. […] In vitro BuChE assay used the similar method described above [31]. Each concentration was assayed in triplicate.

[2] = biological target: T2, BuChE (Equus caballus, UniProt P81908); assay: biochemical
T2 construct: purchased Aladdin B128570-2KU; host or cells: equine serum
Experimental: as §1, §2

[3] = Oxygen radical absorbance capacity-fluorescein (ORAC-FL) assay; settings: Trolox equivalents, Trolox = 1
Experimental: Vitamin E analogue Trolox was used as the standard, and the results were expressed as Trolox equivalents.
The anti-oxidation activity was tested by using the oxygen radical absorbance capacity-fluorescein (ORAC-FL) assay [25, 32]. All the ORAC-assays measure antioxidant scavenging activity against peroxyl radical induced by 2,2′-azobis (2-amidinopropane) dihydrochloride (AAPH) at 37 °C.
The reaction was conducted with 75 mM phosphate buffer (pH 7.4) and the final reaction mixture was 200 μL. Fluorescein (120 μL, 300 nM final concentration) and antioxidant (20 μL) were placed in the wells of a black 96-well plate, and the mixture was incubated for 15 min at 37 °C. Then AAPH solution (60 μL, 12 mM final concentration) was added rapidly. […] 6-hydroxy-2,5,7,8-tetramethylchroman-2-carboxylic acid (Trolox) was used as a standard (1–5 μM, final concentration). A blank (FL + AAPH) using phosphate buffer instead of antioxidant and Trolox calibration were carried out in each assay. The samples were measured at different concentrations (1–5 μM), and at least three independent assays were performed for each sample. Fluorescence measurements were normalized based on the curve of the blank (without antioxidant). Antioxidant curves (fluorescence versus time) were normalized to the curve of the blank in the same assay, and then the area under the fluorescence decay curve (AUC) was calculated. The net AUC of a sample was obtained by subtracting the AUC from the blank. ORAC-FL values were expressed as Trolox equivalents by using the standard curve calculated for each sample, where the ORAC-FL value of Trolox was taken as one, indicating the antioxidant potency of the test compounds.

[4] = in vitro; settings: human
Experimental: Thus, we used the methylthiazolyl tetrazolium (MTT) method [30] to perform a neurocyte (SH-SY5Y) toxicity test in vitro.
The SH-SY5Y cell line was seeded on 96-well plates at a density of 10^4 cells/well. […] Subsequently, 10 μL of 5 mg/mL MTT solution was added to each well and further incubated for 4 h at 37 °C. The solution was carefully removed, and each well was treated with DMSO (200 μL for each well). The optical density of the wells was then read on the microplate reader at 570 nm. All the tested compounds were performed in triplicate.

[5] = biological target: Aβ (1–42) (Homo sapiens, UniProt P05067); assay: Inhibition of self-mediated Aβ (1–42) aggregation (thioflavin T fluorescence assay); settings: read-out: Aβ (1–42) aggregation inhibition rate
Experimental: A thioflavin T based fluorometric assay was performed to investigate the self-mediated Aβ (1–42) aggregation [33]. Aβ (1–42) peptide (Sigma-Aldrich) was dissolved in phosphate buffer (0.01 M, pH 7.40) to obtain a 20 μM solution. Compounds were firstly dissolved in DMSO to obtain a 10 mM solution. Inhibitors and the final concentration of Aβ (1–42) were 20 μM. After incubated in 37 °C for 48 h, thioflavin-T (5 μM in 50 mM glycine-NaOH buffer, pH 8.00) was added. […] Each inhibitor was run in triplicate. The fluorescence intensities were recorded, and the percent inhibition on aggregation was calculated by the following expression: (1 − IFi/IFc) × 100% in which IFi and IFc were the fluorescence intensities obtained for absorbance in the presence and absence of inhibitors, respectively, after subtracting the fluorescence of respective blanks.

[6] = AChE from electric eel, means ± SEM of three experiments, read-out: AchE Inhibition, (IC50)
[7] = BuChE from equine serum, means ± SEM of three experiments, read-out: BuChE Inhibition, (IC50)

T1 sequence (O42275 24-633): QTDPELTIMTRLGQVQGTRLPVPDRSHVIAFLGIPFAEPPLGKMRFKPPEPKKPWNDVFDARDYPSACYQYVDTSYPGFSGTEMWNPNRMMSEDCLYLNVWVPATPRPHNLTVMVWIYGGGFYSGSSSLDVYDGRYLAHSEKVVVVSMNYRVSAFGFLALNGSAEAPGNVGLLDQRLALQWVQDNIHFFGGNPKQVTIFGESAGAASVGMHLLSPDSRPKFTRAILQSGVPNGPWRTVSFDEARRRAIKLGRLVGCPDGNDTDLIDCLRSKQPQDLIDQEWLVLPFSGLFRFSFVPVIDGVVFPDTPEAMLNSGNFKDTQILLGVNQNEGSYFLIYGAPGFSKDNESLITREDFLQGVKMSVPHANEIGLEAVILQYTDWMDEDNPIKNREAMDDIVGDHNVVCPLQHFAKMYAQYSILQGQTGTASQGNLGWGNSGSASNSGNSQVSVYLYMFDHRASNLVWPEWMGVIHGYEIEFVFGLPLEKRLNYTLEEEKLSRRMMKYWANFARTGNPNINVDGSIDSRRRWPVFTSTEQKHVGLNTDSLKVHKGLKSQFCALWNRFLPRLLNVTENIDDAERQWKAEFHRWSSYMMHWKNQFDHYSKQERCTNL
T2 sequence (P81908 whole entry): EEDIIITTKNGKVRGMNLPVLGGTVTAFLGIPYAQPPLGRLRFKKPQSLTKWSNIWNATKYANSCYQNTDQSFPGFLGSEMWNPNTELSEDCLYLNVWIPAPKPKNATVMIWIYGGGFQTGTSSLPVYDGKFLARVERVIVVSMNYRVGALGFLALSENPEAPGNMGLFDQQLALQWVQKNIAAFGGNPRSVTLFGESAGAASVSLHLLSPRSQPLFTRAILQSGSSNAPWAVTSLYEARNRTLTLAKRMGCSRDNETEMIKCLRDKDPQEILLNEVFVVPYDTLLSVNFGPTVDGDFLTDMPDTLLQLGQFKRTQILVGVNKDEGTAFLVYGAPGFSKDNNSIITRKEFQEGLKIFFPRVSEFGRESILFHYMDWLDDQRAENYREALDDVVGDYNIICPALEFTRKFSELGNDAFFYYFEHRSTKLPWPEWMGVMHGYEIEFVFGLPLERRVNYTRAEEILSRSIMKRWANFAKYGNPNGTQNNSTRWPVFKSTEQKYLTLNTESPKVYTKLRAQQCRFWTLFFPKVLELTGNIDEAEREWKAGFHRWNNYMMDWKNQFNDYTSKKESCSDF
Aβ (1–42), sequence (P05067 672-713): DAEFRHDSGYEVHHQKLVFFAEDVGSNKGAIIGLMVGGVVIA

Row | Structure (SMILES) | IC50 [1, 6] | Selective Index [1] | IC50 [2, 7] | ORAC [3] | viability at 48 h, 1 µM [4] | viability at 48 h, 10 µM [4] | viability at 48 h, 50 µM [4] | viability at 48 h, 100 µM [4] | IC50 [1] | IC50 [2] | inhibition at 20 µM [5]
1 | COc1ccc(C2CC(=O)c3c(O)cc(OCC(=O)NCc4ccccc4OC)cc3O2)cc1O (centres unmarked) [Compound 4i, 2-[5-Hydroxy-2-(3-hydroxy-4-methoxyphenyl)-4-oxochroman-7-yloxy]-N-(2-methoxy-benzyl)acetamide] | 19.2 ± 0.66 nM | 103 | 1990 ± 134 nM | 2.7 μM of Trolox equivalent/μMof tested compound | 97.8 ± 6.32% | 96.7 ± 5.21% | 75 ± 4.12% | 55 ± 5.69% | – | – | –
2 | COc1ccc(C2CC(=O)c3c(O)cc(OCC(=O)NCc4ccc(F)cc4)cc3O2)cc1O (centres unmarked) [Compound 4c, N-(4-Fluorobenzyl)-2-[5-hydroxy-2-(3-hydroxy-4-methoxyphenyl)-4-oxochroman-7-yloxy]-acetamide] | 12.4 ± 0.81 nM | 167 | 2080 ± 76 nM | 2.9 μM of Trolox equivalent/μMof tested compound | 98.5 ± 4.98% | 97.5 ± 3.76% | 83.8 ± 2.32% | 58.8 ± 3.97% | – | – | –
3 | COc1ccc([C@@H]2CC(=O)c3c(O)cc(O)cc3O2)cc1O [Hesperetin, hesperetin] | – | 3 | – | – | 99 ± 5.87% | 93 ± 4.33% | 85.2 ± 3.43% | 67.3 ± 5.21% | 1020 ± 37 nM | 2900 ± 67 nM | –
4 | COc1ccc(CNC(=O)COc2cc(O)c3c(c2)OC(c2ccc(OC)c(O)c2)CC3=O)cc1 (centres unmarked) [Compound 4e, 2-[5-Hydroxy-2-(3-hydroxy-4-methoxyphenyl)-4-oxochroman-7-yloxy]-N-(4-methoxy-benzyl)acetamide] | 17.9 nM | 179 | 3210 ± 92 nM | 2.8 μM of Trolox equivalent/μMof tested compound | 105 ± 3.87% | 98.3 ± 5.27% | 87.1 ± 6.37% | 66.5 ± 4.95% | – | – | –
5 | COc1ccc(C2CC(=O)c3c(O)cc(OCC(=O)NCCc4ccc(F)cc4)cc3O2)cc1O (centres unmarked) [Compound 4o, N-[2-(4-Fluorophenyl)ethyl]-2-[5-hydroxy-2-(3-hydroxy-4-methoxyphenyl)-4-oxochroman-7-yloxy]-acetamide] | 13.5 ± 1.44 nM | 167 | 2260 ± 81 nM | – | 101 ± 6.31% | 97.2 ± 5.09% | 81.7 ± 3.52% | 59.7 ± 6.14% | – | – | –
6 | COc1ccc(C2CC(=O)c3c(O)cc(OCC(=O)NCCc4cccc(Cl)c4)cc3O2)cc1O (centres unmarked) [Compound 4r, N-[2-(3-Chlorophenyl)ethyl]-2-[5-hydroxy-2-(3-hydroxy-4-methoxyphenyl)-4-oxo-chroman-7-yloxy]acetamide] | 16.1 ± 0.79 nM | 188 | 3030 ± 84 nM | 2.8 μM of Trolox equivalent/μMof tested compound | 98.9 ± 5.2% | 95.8 ± 6.29% | 83.8 ± 4.24% | 62.2 ± 4.18% | – | – | –
7 | COc1ccc(C2CC(=O)c3c(O)cc(OCC(=O)NCCc4ccc(Cl)cc4)cc3O2)cc1O (centres unmarked) [Compound 4m, N-[2-(4-Chlorophenyl)ethyl]-2-[5-hydroxy-2-(3-hydroxy-4-methoxyphenyl)-4-oxo-chroman-7-yloxy]acetamide] | 15.7 ± 0.85 nM | 214 | 3350 ± 66 nM | 2.6 μM of Trolox equivalent/μMof tested compound | 102 ± 6.65% | 97.3 ± 5.21% | 81.5 ± 4.01% | 64.5 ± 4.32% | – | – | –
8 | COc1ccc(C2CC(=O)c3c(O)cc(OCC(=O)NCCc4ccc(Br)cc4)cc3O2)cc1O (centres unmarked) [Compound 4n, N-[2-(4-Bromophenyl)ethyl]-2-[5-hydroxy-2-(3-hydroxy-4-methoxyphenyl)-4-oxo-chroman-7-yloxy]acetamide] | 17.2 ± 0.96 nM | 115 | 1990 ± 51 nM | 2.4 μM of Trolox equivalent/μMof tested compound | 99.8 ± 3.89% | 96.5 ± 4.24% | 78.8 ± 5.21% | 55.6 ± 5.34% | – | – | –
9 | COc1ccc(C2CC(=O)c3c(O)cc(OCC(=O)NCc4ccc(Br)cc4)cc3O2)cc1O (centres unmarked) [Compound 4d, N-(4-Bromobenzyl)-2-[5-hydroxy-2-(3-hydroxy-4-methoxyphenyl)-4-oxochroman-7-yloxy]-acetamide] | 15.7 ± 0.95 nM | 136 | 2130 ± 64 nM | 2.6 μM of Trolox equivalent/μMof tested compound | 99.9 ± 5.76% | 99.5 ± 6.23% | 86.2 ± 5.14% | 70 ± 4.78% | – | – | –
10 | COc1cccc(CNC(=O)COc2cc(O)c3c(c2)OC(c2ccc(OC)c(O)c2)CC3=O)c1 (centres unmarked) [Compound 4j, 2-[5-Hydroxy-2-(3-hydroxy-4-methoxyphenyl)-4-oxochroman-7-yloxy]-N-(3-methoxy-benzyl)acetamide] | 22.3 ± 1.54 nM | 110 | 2460 ± 83 nM | 3.1 μM of Trolox equivalent/μMof tested compound | 103 ± 6.47% | 98.2 ± 7.01% | 84.2 ± 3.2% | 70.8 ± 5.36% | – | – | –
11 | COc1ccc(C2CC(=O)c3c(O)cc(OCC(=O)NCc4ccccc4F)cc3O2)cc1O (centres unmarked) [Compound 4h, N-(2-Fluorobenzyl)-2-[5-hydroxy-2-(3-hydroxy-4-methoxyphenyl)-4-oxochroman-7-yloxy]-acetamide] | 15.2 ± 2.03 nM | 184 | 2800 ± 39 nM | 2.5 μM of Trolox equivalent/μMof tested compound | 100 ± 6.52% | 98.8 ± 5.38% | 75.8 ± 3.83% | 60.6 ± 4.27% | – | – | –
12 | COc1ccc(C2CC(=O)c3c(O)cc(OCC(=O)NCc4ccccc4)cc3O2)cc1O (centres unmarked) [Compound 4a, N-Benzyl-2-[5-hydroxy-2-(3-hydroxy-4-methoxyphenyl)-4-oxochroman-7-yloxy]-acetamide] | 25.5 ± 1.32 nM | 133 | 3400 ± 56 nM | – | 98.2 ± 8.02% | 91.6 ± 5.67% | 81.4 ± 5.23% | 63.2 ± 4.23% | – | – | 73.2%
13 | COc1cc(/C=C/C(=O)CC(=O)/C=C/c2ccc(O)c(OC)c2)ccc1O [Curcumin, curcumin, reference compound] | – | – | – | – | 95.3 ± 5.21% | 90.9 ± 4.31% | 82.1 ± 3.07% | 71.8 ± 4.21% | – | – | –
14 | COc1ccc(C2CC(=O)c3c(O)cc(OCC(=O)NCc4ccc(Cl)cc4)cc3O2)cc1O (centres unmarked) [Compound 4b, N-(4-Chlorobenzyl)-2-[5-hydroxy-2-(3-hydroxy-4-methoxyphenyl)-4-oxochroman-7-yloxy]-acetamide] | 13.6 ± 0.78 nM | 258 | 3500 ± 66 nM | 2.7 μM of Trolox equivalent/μMof tested compound | 103 ± 4.56% | 95.9 ± 3.98% | 83.7 ± 4.12% | 65.4 ± 5.33% | – | – | –
15 | COc1ccc(C2CC(=O)c3c(O)cc(OCC(=O)NCCc4ccccc4Cl)cc3O2)cc1O (centres unmarked) [Compound 4p, N-[2-(2-Chlorophenyl)ethyl]-2-[5-hydroxy-2-(3-hydroxy-4-methoxyphenyl)-4-oxo-chroman-7-yloxy]acetamide] | 17.2 ± 0.45 nM | 201 | 3470 ± 67 nM | 2.7 μM of Trolox equivalent/μMof tested compound | 99.3 ± 4.34% | 94.4 ± 3.9% | 83.1 ± 4.27% | 64.5 ± 4.82% | – | – | –
16 | COc1ccc(CCNC(=O)COc2cc(O)c3c(c2)OC(c2ccc(OC)c(O)c2)CC3=O)cc1 (centres unmarked) [Compound 4l, 2-[5-Hydroxy-2-(3-hydroxy-4-methoxyphenyl)-4-oxochroman-7-yloxy]-N-[2-(4-methoxy-phenyl)ethyl]acetamide] | 19.5 ± 0.77 nM | 143 | 2790 ± 53 nM | 2.9 μM of Trolox equivalent/μMof tested compound | 98.9 ± 4.07% | 94.5 ± 5.32% | 78.5 ± 3.21% | 63.2 ± 5.04% | – | – | –
17 | COc1ccc(C2CC(=O)c3c(O)cc(OCC(=O)NCc4ccccc4Cl)cc3O2)cc1O (centres unmarked) [Compound 4g, N-(2-Chlorobenzyl)-2-[5-hydroxy-2-(3-hydroxy-4-methoxyphenyl)-4-oxochroman-7-yloxy]acetamide] | 14 ± 0.95 nM | 116 | 1630 ± 78 nM | – | 97.8 ± 6.83% | 95.7 ± 5.67% | 79.3 ± 4.33% | 70.8 ± 5.32% | – | – | –
18 | COc1ccc(C2CC(=O)c3c(O)cc(OCC(=O)NCCc4ccccc4F)cc3O2)cc1O (centres unmarked) [Compound 4q, N-[2-(2-Fluorophenyl)ethyl]-2-[5-hydroxy-2-(3-hydroxy-4-methoxyphenyl)-4-oxochroman-7-yloxy]-acetamide] | 20.2 ± 1.88 nM | 111 | 2240 ± 77 nM | 2.5 μM of Trolox equivalent/μMof tested compound | 99 ± 5.28% | 92 ± 6.41% | 85.6 ± 3.95% | 66.5 ± 3.81% | – | – | –
19 | Nc1c2c(nc3ccccc13)CCCC2 [Tacrine, tacrine, reference compound] | – | – | – | <0.1 μM of Trolox equivalent/μMof tested compound | – | – | – | – | – | – | –
20 | COc1ccc(C2CC(=O)c3c(O)cc(OCC(=O)NCCc4ccccc4)cc3O2)cc1O (centres unmarked) [Compound 4k, 2-[5-Hydroxy-2-(3-hydroxy-4-methoxyphenyl)-4-oxochroman-7-yloxy]-N-phenethyl-acetamide] | 11.9 ± 1.12 nM | 254 | 3010 ± 74 nM | 2.7 μM of Trolox equivalent/μMof tested compound | 98.9 ± 6.3% | 96.5 ± 2.98% | 81 ± 3.22% | 68.5 ± 4.92% | – | – | –
